Assay results from patent US20220313701A1, “MODULATORS OF TREX1” (Constellation Pharmaceuticals, Inc., priority 2019, published 2022).

Key:
full length human TREX1 = target: T1, full length human TREX1 (Homo sapiens, UniProt Q9NSU2); experiment: TREX1 Biochemical Assay (fluorescence assay, degradation of dsDNA substrate); conditions: 150 pM TREX1, 60 nM dsDNA substrate, 25 minutes at room temperature
T1 construct: N-terminally His-Tev tagged full length human TREX1; His-Tev (His tag with TEV site) (N); made in house; host or cells: E. coli
T1 sequence (Q9NSU2 1-314): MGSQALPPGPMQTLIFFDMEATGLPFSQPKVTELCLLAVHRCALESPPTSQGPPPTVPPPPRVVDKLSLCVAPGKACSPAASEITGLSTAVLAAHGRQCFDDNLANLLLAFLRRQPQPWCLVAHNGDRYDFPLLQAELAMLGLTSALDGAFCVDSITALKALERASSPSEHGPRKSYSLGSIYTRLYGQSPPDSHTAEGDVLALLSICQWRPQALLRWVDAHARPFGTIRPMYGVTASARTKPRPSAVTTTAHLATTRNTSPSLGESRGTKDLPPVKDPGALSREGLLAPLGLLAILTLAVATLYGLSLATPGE
Method in brief: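 N-terminally His-Tev-tagged enzyme expressed in E. coli, 150 pM, with 60 nM dual-labelled dsDNA (TEX615/quencher) in pH 7.4 Tris buffer with MgCl2, 1% DMSO; 10-point dose-response, 25 min at room temperature, then EDTA quench. Fluorescence at 615 nm (excitation 570 nm); IC50 from four-parameter fit against pre-quenched and no-inhibitor controls.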

[1] = target: T2, human TREX2 (residues M44-A279) (Homo sapiens, UniProt Q9BQ50); experiment: TREX2 Biochemical Assay (fluorescence assay, degradation of dsDNA substrate); conditions: 2.5 nM TREX2, 60 nM dsDNA substrate, 25 minutes at room temperature
T2 construct: human TREX2 (residues M44-A279, expressed in E. coli); His-Tev (His tag with TEV site) (N); made in house; host or cells: E. coli
T2 sequence (Q9BQ50 44-279 isoform Q9BQ50-1): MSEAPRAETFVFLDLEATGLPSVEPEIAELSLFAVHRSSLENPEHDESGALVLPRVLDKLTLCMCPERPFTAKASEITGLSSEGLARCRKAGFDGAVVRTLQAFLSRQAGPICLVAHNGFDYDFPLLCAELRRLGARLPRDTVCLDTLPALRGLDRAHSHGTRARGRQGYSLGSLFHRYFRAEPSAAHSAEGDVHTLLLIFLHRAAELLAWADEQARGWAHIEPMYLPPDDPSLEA
Method in brief: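 Final conditions: 2.5 nM His-Tev-tagged TREX2 (E. coli-expressed), 60 nM fluorophore/quencher-labelled dsDNA, 50 mM Tris pH 7.4, 150 mM NaCl, 100 mM MgCl2, 1% DMSO; 10-point compound dose-response. Incubated 25 min at room temperature, then EDTA-quenched; fluorescence read at ex 570/em 615 nm. IC50 from four-parameter fit against pre-quenched and no-inhibitor controls.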

SMILES	IC50 (full length human TREX1)	IC50 [1]
Cc1nc(N2CCC(O)(c3ccc(F)c(F)c3)CC2)cc(N2CCOC[C@@H]2c2ccccc2)n1 [Example 105, (S)-4-(3,4-difluorophenyl)-1-(2-methyl-6-(3-phenylmorpholino)pyrimidin-4-yl)piperidin-4-ol]	1 to 10 µM	> 100 µM
Cc1nc(N2CCC(O)(c3ccc(F)c(F)c3)CC2)cc(-n2ccnc2-c2ccccn2)n1 [Example 106, 4-(3,4-difluorophenyl)-1-(2-methyl-6-(2-(pyridin-2-yl)-1H-imidazol-1-yl)pyrimidin-4-yl)piperidin-4-ol]	1 to 10 µM	> 100 µM
Cc1nc(N2CCC(O)(c3ccc(F)c(F)c3)CC2)cc(-n2c(C)cnc2-c2ccccn2)n1 [Example 107, 4-(3,4-difluorophenyl)-1-(2-methyl-6-(5-methyl-2-(pyridin-2-yl)-1H-imidazol-1-yl)pyrimidin-4-yl)piperidin-4-ol]	1 to 10 µM	> 100 µM
Cc1nc(N2CCC(O)(c3ccc(F)c(F)c3)CC2)cc(N(C)C2(c3ccccn3)CC2)n1 [Example 108, 4-(3,4-difluorophenyl)-1-(2-methyl-6-(methyl(1-(pyridin-2-yl)cyclopropyl)amino)pyrimidin-4-yl)piperidin-4-ol]	0.1 to 1 µM	> 100 µM
